According to US20260060960A1, “GAMMA-SECRETASE INHIBITORS FOR USE IN THE TREATMENT OF INHERITED EPIDERMOLYSIS BULLOSA” (OSPEDALE PEDIATRICO BAMBINO GESU', priority 2022, published 2026):

Assays:
[1] = system: α-SMA, CNN1, TAGLN, JAG1, HES1, POSTN, Pri-miR-143/145 mRNA; assay: Real-time PCR of contractile/fibrotic markers in RDEB fibroblasts; type: cell-based, human; conditions: RDEB-FBs
Source text: Total was extracted by TRIzol (Thermo Fisher Scientific) by monolayer fibroblast cultures, following manufacturer's instructions. RNA was reverse transcribed and amplified by using Power SYBR Green RNA-to-Ct 1-Step Kit (Thermo Fisher Scientific) on QuantStudio™ 7 Pro Real-Time PCR System (Thermo Fisher Scientific). Primer pairs used in this study are listed in Table 2: ACTA2, actin alpha 2, smooth muscle; CNN1, calponin; COL1A1, collagen type I alpha 1 chain; GAPDH, glyceraldehyde-3-phosphate dehydrogenase; HES1, hes family bHLH transcription factor 1; JAG1, jagged canonical Notch ligand 1; NOTCH1, notch receptor 1; POSTN, periostin; TAGLN, transgelin.
Relative mRNA expression levels were measured by the 2−ΔΔCT method. Hypoxanthine phosphoribosyltransferase 1 (HPRT1) was used as housekeeping gene to normalize mRNA expression levels.

[2] = system: primary fibroblasts from RDEB patients (RDEB-FBs); assay: Type I collagen degradation assay; type: cell-based, human; conditions: presence of TGF-β1, PF-03084014 5 μM, DAPT 20 μM
Method: The ability of RDEB-FBs to degrade a thin film of type I collagen (COL1) was assessed as previously described. Briefly, COL1 from calf hides (Symatese, Chaponost, France), was diluted at a concentration of 375 μg/ml in 13 mM hydrochloric acid. Diluted COL1 solution was rapidly mixed on ice with one quarter-volume of a neutralizing phosphate buffer (20 ml of 0.2 M NaH2PO4 pH 7.5, 20 ml 0.1 M NaOH, 4.15 ml 5 M NaCl) and gently dispensed into 24-well plates. COL1 gelation was obtained maintaining COL1-coated plates at 37° C. for 2 h. COL1 gels were dehydrated overnight in a laminar flow hood, washed with sterile water and PBS containing Penicillin/Streptomycin. Then, a droplet of complete medium containing 12.500 RDEB-FBs was gently poured in the center of the well, and cells were allowed to adhere in a humidified chamber for 3 h. […] At the end of the incubation period, RDEB-FBs were detached by trypsin/EDTA and counted to be sure to evaluate collagenolytic activity of the same number of cells per condition. The residual COL1 film was stained for 15 min with a solution of Coomassie Brilliant Blue R-250 Dye (Thermo Fisher Scientific), the excess of stain was removed with a destain solution (30% ethanol, 7.5% CH3COOH). Images were acquired with a 10× objective.

Compound: CCC[C@H](N[C@H]1CCc2cc(F)cc(F)c2C1)C(=O)Nc1cn(C(C)(C)CNCC(C)(C)C)cn1 [PF-03084014, (S)-2-((S)-5,7-difluoro-1,2,3,4-tetrahydronaphthalen-3-ylamino)-N-(1-(2-methyl-1-(neopentylamino)propan-2-yl)-1H-imidazol-4-yl)pentanamide]
- mRNA levels of HES1, periostin and Pri-miR-143/145 [1]: context-dependent downregulation
- mRNA levels of contractile/fibrotic markers (real-time PCR) ([1]; basal conditions and presence of TGF-β1): down-regulation of a selection of contractile/fibrotic markers, including α-SMA, CNN1, TAGLN and JAG1
- type I collagen degradation areas [2]: increased number and size of collagen degradation areas
